Values joined by “and” are separate entries in the source; they are usually repeats but may differ in a detail not shown here. Equal entries are not always repeated. Where two headings read alike, the source gives them in different places.
Tests used:
[1] = Pharmacokinetics of Docetaxel in plasma of rabbits; assay type: in vivo, New Zealand rabbits; details: iv, 2.5 mg/kg DCX; for half-life: New Zealand, rabbit, 2.5 mg/kg
Protocol: Changes in plasma drug concentration reflect changes in drug concentrations at the receptor site, as well as in other tissues.
The formulations were administered intravenously at doses equivalent to 2.5 mg/kg of DCX in each. […] Blood samples were taken at 0.5, 2, 8, and 24 hours from each animal in Groups A and C, and at 1, 4, 12, and 32 hours for each animal in Groups B and D. Then, the samples were pre-treated for analysis—the proteins were precipitated with acetonitrile and then extracted with a solid phase (SPE), evaporated, and resuspended for analysis. […] Any adjustment of the experimental data was performed by weighted nonlinear regression of at least squares using a bi-exponential descriptive model.
For this study, kd and kel were interpreted as the first order apparent distribution and elimination constants, respectively, and C1 and C2 were the coefficients of the adjustment model.
From the estimated values of C1, kd, C2, and kel, the following pharmacokinetic parameters were calculated, as shown in Table 10 below.
Clearance (CI) refers to the volume of blood that has completely cleared of the drug/unit time when it passes through a clearing organ.

[2] = Liver accumulation of Docetaxel in rabbits; assay type: in vivo; details: iv, 2.5 mg/kg DCX
Protocol: In measuring the liver accumulation, the animals were randomly divided into four groups following the above plasma assay. The groups were as follows:
The livers of the rabbits were totally removed at 24 hours and 36 hours, then weighed, frozen and stored at […]. The rabbit liver samples were precipitated with acetonitrile, followed by solid phase extraction (SPE), evaporation and resuspension of the resulting extract in a solvent and then analyzed by injection into LC ESI MS/MS. The determinations were performed by liquid chromatography and mass spectrometry (using a Shimadzu UFLC XR liquid chromatograph coupled to a AB Sciex 3200 QTrap mass spectrometer).
Values are Media±SEM. (N=5).

[3] = tested on: VERO (monkey kidney epithelial cells); experiment: In vitro cytotoxicity assay (MTS), VERO; assay type: cell-based
[4] = tested on: PC3 (prostate cancer epithelial cells); experiment: In vitro cytotoxicity assay (MTS), PC3; assay type: cell-based, human
Protocol: 50 μL of the cell suspensions were seeded in 96-well plates in duplicate with Dulbecco's basal medium plus 10% fetal bovine serum supplemented with 10% fetal bovine serum (FBS) for PC-3, and with DMEM/Ham's F12 medium containing 10% FBS, 1% 1-glutamine for A549 cell line. Both were maintained in culture for 24 hours. The cells were then treated with serial diluted concentrations of DCX starting from 100 nM and incubated for 48 hours. At the end of incubation, 20 μL/well of MTS/PMs solution (2 mL of MTS with 100 μL of PMS solution) were added. Then, plates were incubated at 37° C., 5% CO2 for 4 hours.
Absorbance values obtained from the in vitro cytotoxicity assay of DCX, Nano+DCX, and Nano+DCX+ApoE3 samples were plotted based on the DCX concentration employed, using OriginPro 8 software (ORIGINLAB Corporation, USA). The IC50 (nM) of each of the samples was determined at 50% of the maximum absorbance value obtained, corresponding to the value obtained for the growth control.

[5] = tested on: A549 (lung cancer epithelial cells); experiment: In vitro cytotoxicity assay (MTS), A549; assay type: cell-based, human
Protocol: 50 μL of the cell suspensions were seeded in 96-well plates in duplicate with Dulbecco's basal medium plus 10% fetal bovine serum supplemented with 10% fetal bovine serum (FBS) for PC-3, and with DMEM/Ham's F12 medium containing 10% FBS, 1% 1-glutamine for A549 cell line. Both were maintained in culture for 24 hours. The cells were then treated with serial diluted concentrations of DCX starting from 100 nM and incubated for 48 hours. At the end of incubation, 20 μL/well of MTS/PMs solution (2 mL of MTS with 100 μL of PMS solution) were added. Then, plates were incubated at 37° C., 5% CO2 for 4 hours. […] The result allowed for conditions for evaluating the growth inhibition of the Nano+DCX and Nano+DCX+ApoE3 to be defined.
Absorbance values obtained from the in vitro cytotoxicity assay of DCX, Nano+DCX, and Nano+DCX+ApoE3 samples were plotted based on the DCX concentration employed, using OriginPro 8 software (ORIGINLAB Corporation, USA). The IC50 (nM) of each of the samples was determined at 50% of the maximum absorbance value obtained, corresponding to the value obtained for the growth control. The anti-proliferation effect shown on different cells with DCX, Nano+DCX, and Nano+DCX+ApoE3 decreased cell proliferation.

[6] = tested on: rabbits
[7] = tested on: human plasma proteins; details: cited from earlier work

CC(=O)O[C@@]12CO[C@@H]1C[C@H](O)[C@@]1(C)C(=O)[C@H](O)C3=C(C)[C@@H](OC(=O)[C@H](O)[C@@H](NC(=O)OC(C)(C)C)c4ccccc4)C[C@@](O)([C@@H](OC(=O)c4ccccc4)[C@H]21)C3(C)C [TAXOTERE, Docetaxel]
half-life ([1]; read-out: t1/2e1: Elimination half-life (converted)): 19.7 h | half-life ([1]; read-out: t1/2d: Distribution half-life (converted)): 0.54 h | ABC0-∞: Area under the curve from time zero to infinity [1]: 1152.0 ng·h/mL | ABCex: Percentage of area under the curve extrapolated to infinity [1]: 26.0% | ABCtz-∞: Area under the curve from the last sampling time to infinity [1]: 299.0 ng·h/mL | C1: Coefficient of the first exponential term [1]: 295.1 ng/mL | C2: Coefficient of the second exponential term [1]: 32.5 ng/mL | Cz: Coefficient of last exponential term [1]: 10.52 ng/mL | kd: first order apparent distribution constant [1]: 0.000356 s⁻¹ | ke1: first order apparent elimination constant [1]: 0.035 h⁻¹ | DCX Concentration in Liver ([2]; 24 hours): 446 ± 66 | DCX Concentration in Liver ([2]; 36 hours): 495 ± 126 | IC50 ([3]; Normal Serum, 48 hours, listed as DCX, read-out: IC50 in VERO, individual tests): 145 nM and 140 nM and 150 nM | IC50 ([3]; Primates, Vero, 48 h, Normal Serum, 48 hours, read-out: IC50 in VERO, individual tests): 136 nM | IC50 ([3]; Primates, Vero, 48 h, Serum Free of Lipoprotein, 48 hours, read-out: IC50 in VERO, individual tests): 138 nM | IC50 ([3]; Primates, Vero, LP-FREE SERUM, Table 18, read-out: IC50 Normal Cell (Vero)): 129 nM | IC50 ([3]; Primates, Vero, NORMAL SERUM, Table 18, read-out: IC50 Normal Cell (Vero)): 143 nM | IC50 ([3]; Primates, Vero, Normal Serum, average of tests, read-out: IC50 in VERO): 143 ± 2.9 nM | IC50 ([3]; Primates, Vero, Serum Free of Lipoprotein, average of tests, read-out: IC50 in VERO): 129 ± 8.06 nM | IC50 ([3]; Serum Free of Lipoprotein, 48 hours, listed as DCX, read-out: IC50 in VERO, individual tests): 106 nM (2×) and 140 nM and 153 nM and 152 nM and 111 nM | IC50 ([4]; Homo sapiens, Epithelial cell, 48 h, Normal Serum, 48 hours, read-out: IC50 in PC3, individual tests): 3.5 nM | IC50 ([4]; Homo sapiens, Epithelial cell, LP-FREE SERUM, Table 18, read-out: IC50 PC3): 30 nM | IC50 ([4]; Homo sapiens, Epithelial cell, NORMAL SERUM, Table 18, read-out: IC50 PC3): 4 nM | IC50 ([4]; Homo sapiens, Epithelial cell, Normal Serum, average of tests, read-out: IC50 in PC3): 3.5 ± 0.1 nM | IC50 ([4]; Homo sapiens, Epithelial cell, Serum Free of Lipoprotein, average of tests, read-out: IC50 in PC3): 30.2 ± 6.3 nM | IC50 ([4]; Homo sapiens, Epithelial cell, prostate cancer cell cultures, without lipoproteins, read-out: IC50): 30 nM | Si PC3 ([4]; LP-FREE SERUM, SI=IC50 (Vero)/IC50 (PC3)): 4 | IC50 ([4]; Normal Serum, 48 hours, listed as DCX, read-out: IC50 in PC3, individual tests): 3.9 nM and 3.3 nM and 3.4 nM | IC50 ([4]; Serum Free of Lipoprotein, 48 hours, listed as DCX, read-out: IC50 in PC3, individual tests): 37.5 nM and 34.5 nM and 39 nM and 10 nM | times more toxic in the presence of lipoproteins ([4]; prostate cancer cell cultures): 7.5 times | IC50 ([5]; Homo sapiens, A549, 48 h, Normal Serum, 48 hours, read-out: IC50 in A549, individual tests): 8.75 nM | IC50 ([5]; Homo sapiens, A549, 48 h, Serum Free of Lipoprotein, 48 hours, read-out: IC50 in A549, individual tests): 25.5 nM | IC50 ([5]; Homo sapiens, A549, LP-FREE SERUM, Table 18, read-out: IC50 A549): 34 nM | IC50 ([5]; Homo sapiens, A549, NORMAL SERUM, Table 18, read-out: IC50 A549): 9 nM | IC50 ([5]; Homo sapiens, A549, Normal Serum, average of tests, read-out: IC50 in A549): 8.7 ± 0.7 nM | IC50 ([5]; Homo sapiens, A549, Serum Free of Lipoprotein, average of tests, read-out: IC50 in A549): 33.8 ± 3.2 nM | IC50 ([5]; Homo sapiens, A549, lung cancer cell cultures, without lipoproteins, read-out: IC50): 34 nM | Si A549 ([5]; LP-FREE SERUM, SI=IC50 (Vero)/IC50 (A549)): 4 | SI A549 ([5]; NORMAL SERUM, SI=IC50 (Vero)/IC50 (A549), listed as DCX): 16 | IC50 ([5]; Normal Serum, 48 hours, listed as DCX, read-out: IC50 in A549, individual tests): 6.65 nM and 9.6 nM and 9.9 nM | IC50 ([5]; Serum Free of Lipoprotein, 48 hours, listed as DCX, read-out: IC50 in A549, individual tests): 33 nM and 37.5 nM and 45.5 nM and 36.5 nM and 25 nM | times more toxic in the presence of lipoproteins ([5]; lung cancer cell cultures): 3.8 times | signs after day 12 ([6]; rabbit, in vivo, 3.2 mg/kg): anorexia and adipsia | dead animals after the first cycle of inoculation ([6]; rabbits, 3.2 mg/kg Docetaxel): dead animals were found | dead animals after the second cycle of inoculation ([6]; rabbits, 3.2 mg/kg Docetaxel): dead animals were found | mortality / lethality ([6]; rabbits, 3.2 mg/kg Docetaxel (4 ml/kg), three cycles): 80% | free Docetaxel (fu) ([7]; at 1.24 μM (1 μg/ml) plasma serum): 0.082 µM | bound to plasma proteins ([7]; ultrafiltration at 37° C. and pH 7.4): > 98%
